Here are results for 3 molecules from article PMC5102573 (Clinical Pharmacology and Therapeutics, 2016).

For series [1] the following is noted: rosuvastatin 10 mg q.d. with metformin 750 mg q.d.; cited from earlier work.
For series [2] the following is noted: 5 mg rosuvastatin and 600 mg rifampin; cited from earlier work.
Setting [3] is: cocktail T1 vs alone, geometric mean ratio.
The mark [4] stands for this setting: cocktail T2 vs alone, geometric mean ratio.
[5] abbreviates: cocktail T3 vs alone, geometric mean ratio.

“And” between values parts separate entries of the source, which are not always exact repeats. Equal values may be shown once. Where a name gives a salt, the structure may show the parent alone. Read-outs that look alike come from different tables or passages of the source.

Consider `C[C@H]1O[C@@H](O[C@H]2[C@@H](O)C[C@H](O[C@H]3[C@@H](O)C[C@H](O[C@H]4CC[C@@]5(C)[C@H](CC[C@@H]6[C@@H]5C[C@@H](O)[C@]5(C)[C@@H](C7=CC(=O)OC7)CC[C@]65O)C4)O[C@@H]3C)O[C@@H]2C)C[C@H](O)[C@@H]1O` [Digoxin, digoxin], for which the “urinary excretion parameters fe0-36 and CLR,0-36 between the treatments” value in “Urinary excretion” (alone vs cocktails) was “comparable”. Under “T3 vs T1”, the “AUC0-tz decrease, cocktail T3 vs cocktail T1” value is on record as 22.6% and the “Cmax decrease, cocktail T3 vs cocktail T1” value came out at 12.2%. For the setting “after all treatments (alone and cocktails)”, this molecule yielded a median tmax of 1.0 h. Also, where the note is “cocktail T3 vs alone (R)”, the “AUC0-tz decrease in cocktail vs drug alone” value amounted to 17%; the “Cmax decrease in cocktail vs drug alone” value was 11.4% and 11%.

Consider `CC(C)c1nc(N(C)S(C)(=O)=O)nc(-c2ccc(F)cc2)c1/C=C/[C@@H](O)C[C@@H](O)CC(=O)O` [Rosuvastatin, rosuvastatin], for which, in series [1], the “effect of metformin on AUCτ” value was “did not alter” and the “increase of geometric mean Cmax,ss caused by metformin” value is given as 23%. For the same molecule, in series [2], the “increase of plasma AUC0-24 with rifampin” value is 5.2 fold and the “increase of plasma Cmax with rifampin” value is reported as 9.9 fold. Further, the “CLR,0-36 in the different treatment periods” value in the series “Urinary excretion” (alone vs cocktails) is on record as “comparable”. For the same molecule, the “fe0-36, gMean” value in the series “Urinary excretion” (analyte given in Test Cocktail 1) is recorded as 7.93%. In addition, the “fe0-36, gMean” value in “Urinary excretion” (drug given alone, fraction excreted in urine 0-36 h) was found to be 5.45%. Besides, the “fe0-36 in cocktails T1, T2, and T3 compared to drug alone” value in the series “Urinary excretion” (in vivo) is given as “higher”. Moreover, under setting [3], the “AUC0-tz increase (higher) in cocktail vs drug alone” value is 43.4% and 43%; the “AUC0-∞ increase in cocktail vs drug alone” value (from here on “AUC0-∞ increase in cocktail”) turned out to be 27.8%; the “Cmax increase (higher) in cocktail vs drug alone” value is 38.6% and 39%. Besides, under setting [4], the “AUC0-tz increase in cocktail vs drug alone” value was 50.9%, the “AUC0-∞ increase in cocktail” value was determined as 37.4% and the “Cmax increase in cocktail vs drug alone” value is 37.9%. Under setting [5], the “AUC0-tz increase in cocktail vs drug alone” value is reported as 45.6%, the “AUC0-∞ increase in cocktail” value came out at 23.3% and the “Cmax increase in cocktail vs drug alone” value came to 40.1%. Besides, where the note is “test cocktail T1 vs drug alone”, the “AUC0-tz, Ratio T/R (relative bioavailability)” value was 143.39%; the “AUC0-∞, Ratio T/R (relative bioavailability)” value amounted to 127.83%; the “Cmax, Ratio T/R (relative bioavailability)” value is given as 138.57%. Where the note is “test cocktail T2 vs drug alone”, the “AUC0-tz, Ratio T/R (relative bioavailability)” value worked out at 150.87%; the “AUC0-∞, Ratio T/R (relative bioavailability)” value worked out at 137.43%; the “Cmax, Ratio T/R (relative bioavailability)” value was determined as 137.93%. Further, where the note is “test cocktail T3 vs drug alone”, the “AUC0-tz, Ratio T/R (relative bioavailability)” value came out at 145.61%; the “AUC0-∞, Ratio T/R (relative bioavailability)” value turned out to be 123.25%; the “Cmax, Ratio T/R (relative bioavailability)” value was found to be 140.05%.

`CN(C)C(=N)N=C(N)N` [Metformin, metformin hydrochloride]: in “Urinary excretion” (cocktails T1 and T3 vs alone), the “CLR,0-24 decrease in cocktails vs drug alone” value is given as 10–18% and the “fe0-36 decrease in cocktails vs drug alone” value is listed as 10–18%.
